This is an account of results in ChEMBL document CHEMBL4808184, “Discovery and Optimization of DNA Gyrase and Topoisomerase IV Inhibitors with Potent Activity against Fluoroquinolone-Resistant Gram-Positive Bacteria” (J Med Chem, 2021).

Converted amounts (≈) assume the structure as drawn.

The test system of one series is Staphylococcus aureus. As to the kind of experiment: microbe, parasite or virus in culture. The settings on record: ATCC 49951.
Consider `COc1c(N2C[C@@H]3CCCN[C@@H]3C2)c(F)cc2c(=O)c(C(=O)O)cn(C3CC3)c12` [MOXIFLOXACIN], for which the MIC came out at 4 µg/mL (≈ 9.96 µM).

Molecule `Cc1c(N2CC[C@@H]([C@H](C)N)C2)c(F)cc2cc(O)c(=O)n(C3CC3)c12` yielded an MIC of 0.5 µg/mL (≈ 1.45 µM).

Take `Cc1c(N2CCC(C3(N)CC3)C2)c(F)cc2c(CC(=O)N(C)C)cc(=O)n(C3CC3)c12` (stereo not given): the MIC came to 1 µg/mL (≈ 2.34 µM).

On to `Cc1c(N2CCC(C3(N)CC3)C2)c(F)cc2c(Cc3n[nH]c(=O)o3)cc(=O)n(C3CC3)c12` (stereo not given), for which the MIC is 0.5 µg/mL (≈ 1.14 µM).

Consider `C[C@H]1COc2c(N3CC4C[C@@H](OC(F)F)C[C@@H](N)[C@H]4C3)c(F)cc3cc(C(=O)O)c(=O)n1c23` (single isomer, unassigned), for which the MIC worked out at 1 µg/mL (≈ 2.14 µM).

Test system in a further series: not listed separately
As to the kind of experiment: in vivo. Conditions: rat, po, 5 mg/kg.
For orientation: AUC(0-inf) means total exposure, with the tail of the curve extrapolated. Low values mean less exposure, high ones more exposure. `Cc1c(N2CCC(C3(N)CC3)C2)c(F)cc2c(CC(=O)N(C)C)cc(=O)n(C3CC3)c12` (stereo not given) registered an AUC(0-inf) at 24 h of 0.26 µM·h.

Take `Cc1c(N2CCC(C3(N)CC3)C2)c(F)cc2c(Cc3n[nH]c(=O)o3)cc(=O)n(C3CC3)c12` (stereo not given): the AUC(0-inf) at 24 h was determined as 0.12 µM·h.

Test system in the next series: not listed separately
Description: in vitro. Conditions: Sprague-Dawley, rat, plasma.
One may read the fraction unbound as the share of the substance not bound to proteins or other matrix. A lower fraction unbound goes with extensive binding. `Cc1c(N2CCC(C3(N)CC3)C2)c(F)cc2c(CC(=O)N(C)C)cc(=O)n(C3CC3)c12` (stereo not given) showed a fraction unbound at 4 h, 10 µM of 0.33.

Regarding `Cc1c(N2CCC(C3(N)CC3)C2)c(F)cc2c(Cc3n[nH]c(=O)o3)cc(=O)n(C3CC3)c12` (stereo not given), the fraction unbound at 4 h, 10 µM is 0.15.

In the next series the test system is HepG2. Description: cells. The settings on record: Homo sapiens, HepG2, 72 h.
By EC50 is commonly meant the concentration that produces a half-maximal response. Lower therefore signals higher potency in that assay. In turn, `COc1c(N2C[C@@H]3CCCN[C@@H]3C2)c(F)cc2c(=O)c(C(=O)O)cn(C3CC3)c12` [MOXIFLOXACIN] returned an EC50 above 100 µM.

`Cc1c(N2CC[C@@H]([C@H](C)N)C2)c(F)cc2cc(O)c(=O)n(C3CC3)c12` yielded an EC50 of 74 µM.

Test system in the next series: not listed separately
Description: physchem. The settings on record: octanol/water, pH 7.4.
For orientation: logD means lipophilicity at a set pH, counting ionised and neutral species. Low readings indicate a more hydrophilic compound, high ones a more lipophilic compound. `Cc1c(N2CCC(C3(N)CC3)C2)c(F)cc2c(CC(=O)N(C)C)cc(=O)n(C3CC3)c12` (stereo not given) returned a logD of 0.27.

Regarding `Cc1c(N2CCC(C3(N)CC3)C2)c(F)cc2c(Cc3n[nH]c(=O)o3)cc(=O)n(C3CC3)c12` (stereo not given), the logD came out at 0.24.

The molecule `C[C@H]1COc2c(N3CC4C[C@@H](OC(F)F)C[C@@H](N)[C@H]4C3)c(F)cc3cc(C(=O)O)c(=O)n1c23` (single isomer, unassigned) registered a logD of -0.4.

Test system in a further series: not listed separately
Description: in vivo. Conditions: rat, 5 mg/kg.
The term Vd denotes a proportionality between amount in the body and measured concentration, not a real space. In the case of `Cc1c(N2CCC(C3(N)CC3)C2)c(F)cc2c(CC(=O)N(C)C)cc(=O)n(C3CC3)c12` (stereo not given), the Vd at 24 h was determined as 3.3 L/kg.

Turning to `Cc1c(N2CCC(C3(N)CC3)C2)c(F)cc2c(Cc3n[nH]c(=O)o3)cc(=O)n(C3CC3)c12` (stereo not given), the Vd at 24 h was determined as 1.3 L/kg.

The subject of another series is Staphylococcus aureus. Description: microbe, parasite or virus in culture. Conditions: ATCC 49951. The source holds these as a separate data set.
`COc1c(N2C[C@@H]3CCCN[C@@H]3C2)c(F)cc2c(=O)c(C(=O)O)cn(C3CC3)c12` [MOXIFLOXACIN] returned an MIC of 0.06 µg/mL (≈ 0.149 µM).

`Cc1c(N2CCC(C3(N)CC3)C2)c(F)cc2c(CC(=O)N(C)C)cc(=O)n(C3CC3)c12` (stereo not given) yielded an MIC of 2 µg/mL (≈ 4.69 µM).

In the case of `Cc1c(N2CCC(C3(N)CC3)C2)c(F)cc2c(Cc3n[nH]c(=O)o3)cc(=O)n(C3CC3)c12` (stereo not given), the MIC stood at 1 µg/mL (≈ 2.28 µM).

With `C[C@H]1COc2c(N3CC4C[C@@H](OC(F)F)C[C@@H](N)[C@H]4C3)c(F)cc3cc(C(=O)O)c(=O)n1c23` (single isomer, unassigned), the MIC was determined as 0.06 µg/mL (≈ 0.128 µM).

Test system in the next series: not listed separately
Description: physchem.
Conditions: not given
By pKa is commonly meant the pH at which an ionisable group is half protonated. A higher pKa goes with a group that holds its proton tightly. Regarding `Cc1c(N2CCC(C3(N)CC3)C2)c(F)cc2c(Cc3n[nH]c(=O)o3)cc(=O)n(C3CC3)c12` (stereo not given), the pKa turned out to be 7.2.

Test system in another series: not listed separately
Description: in vitro. Conditions: CD1, mouse, plasma.
Molecule `Cc1c(N2CCC(C3(N)CC3)C2)c(F)cc2c(CC(=O)N(C)C)cc(=O)n(C3CC3)c12` (stereo not given) gave a fraction unbound at 4 h, 10 µM of 0.58.

Molecule `Cc1c(N2CCC(C3(N)CC3)C2)c(F)cc2c(Cc3n[nH]c(=O)o3)cc(=O)n(C3CC3)c12` (stereo not given) gave a fraction unbound at 4 h, 10 µM of 0.4.

Test system in a further series: not listed separately
Description: in vivo. Conditions: rat, iv.
What is called half-life is the time in which the quantity being followed falls by half. The low end stands for fast loss, the high end for slow loss. `Cc1c(N2CCC(C3(N)CC3)C2)c(F)cc2c(CC(=O)N(C)C)cc(=O)n(C3CC3)c12` (stereo not given) had a half-life at 24 h of 1.61 h.

`Cc1c(N2CCC(C3(N)CC3)C2)c(F)cc2c(Cc3n[nH]c(=O)o3)cc(=O)n(C3CC3)c12` (stereo not given): the half-life at 24 h is 0.99 h.

Test system in a further series: not listed separately
As to the kind of experiment: in vivo. The settings on record: rat, po, 5 mg/kg. The source holds these as a separate data set.
By Tmax is commonly meant the time at which the peak concentration occurs. Take `Cc1c(N2CCC(C3(N)CC3)C2)c(F)cc2c(CC(=O)N(C)C)cc(=O)n(C3CC3)c12` (stereo not given): the Tmax at 24 h stood at 1.17 h.

Consider `Cc1c(N2CCC(C3(N)CC3)C2)c(F)cc2c(Cc3n[nH]c(=O)o3)cc(=O)n(C3CC3)c12` (stereo not given), for which the Tmax at 24 h is 0.5 h.

Test system in the next series: not listed separately
Description: physchem.
Conditions: not given
The source holds these as a separate data set.
For `COc1c(N2C[C@@H]3CCCN[C@@H]3C2)c(F)cc2c(=O)c(C(=O)O)cn(C3CC3)c12` [MOXIFLOXACIN], the pKa is 6.7.

In the case of `Cc1c(N2CC[C@@H]([C@H](C)N)C2)c(F)cc2cc(O)c(=O)n(C3CC3)c12`, the pKa was found to be 8.2.

`Cc1c(N2CCC(C3(N)CC3)C2)c(F)cc2c(CC(=O)N(C)C)cc(=O)n(C3CC3)c12` (stereo not given) showed a pKa of 8.5.

In turn, `C[C@H]1COc2c(N3CC4C[C@@H](OC(F)F)C[C@@H](N)[C@H]4C3)c(F)cc3cc(C(=O)O)c(=O)n1c23` (single isomer, unassigned) gave a pKa of 5.2.

Test system in another series: not listed separately
Description: in vitro. Conditions: human, plasma.
The molecule `Cc1c(N2CCC(C3(N)CC3)C2)c(F)cc2c(CC(=O)N(C)C)cc(=O)n(C3CC3)c12` (stereo not given) gave a fraction unbound at 4 h, 10 µM of 0.57.

With `Cc1c(N2CCC(C3(N)CC3)C2)c(F)cc2c(Cc3n[nH]c(=O)o3)cc(=O)n(C3CC3)c12` (stereo not given), the fraction unbound at 4 h, 10 µM was 0.27.

Test system in a further series: not listed separately
As to the kind of experiment: in vivo. The settings on record: rat, po, 5 mg/kg. This is another data set of the same source.
For orientation: bioavailability means dose-corrected exposure relative to a reference, in per cent. On to `Cc1c(N2CCC(C3(N)CC3)C2)c(F)cc2c(CC(=O)N(C)C)cc(=O)n(C3CC3)c12` (stereo not given), for which the bioavailability at 24 h turned out to be 32.5%.

On to `Cc1c(N2CCC(C3(N)CC3)C2)c(F)cc2c(Cc3n[nH]c(=O)o3)cc(=O)n(C3CC3)c12` (stereo not given), for which the bioavailability at 24 h amounted to 14.9%.

In the next series the test system is K562. Description: cells. Conditions: Homo sapiens, K562, 72 h.
For `COc1c(N2C[C@@H]3CCCN[C@@H]3C2)c(F)cc2c(=O)c(C(=O)O)cn(C3CC3)c12` [MOXIFLOXACIN], the 50% effective concentration (EC50) is above 100 µM.

`Cc1c(N2CC[C@@H]([C@H](C)N)C2)c(F)cc2cc(O)c(=O)n(C3CC3)c12` came in with an EC50 of 65 µM.

Test system in another series: not listed separately
Description: in vivo. Conditions: rat, po, 5 mg/kg. The source holds these as a separate data set.
Usually Cmax stands for the maximum level reached in the sampled fluid or tissue. In the case of `Cc1c(N2CCC(C3(N)CC3)C2)c(F)cc2c(CC(=O)N(C)C)cc(=O)n(C3CC3)c12` (stereo not given), the concentration peaked (Cmax at 24 h) at 78 nM.

`Cc1c(N2CCC(C3(N)CC3)C2)c(F)cc2c(Cc3n[nH]c(=O)o3)cc(=O)n(C3CC3)c12` (stereo not given) displayed a Cmax at 24 h of 51 nM.

Test system in the next series: not listed separately
Description: in vivo. Conditions: rat, 5 mg/kg. This is another data set of the same source.
Broadly, the clearance is the volume of plasma or blood freed of the substance per unit of time. For the molecule `Cc1c(N2CCC(C3(N)CC3)C2)c(F)cc2c(CC(=O)N(C)C)cc(=O)n(C3CC3)c12` (stereo not given), the clearance at 24 h worked out at 49.3 mL/min/kg.
